From ChEMBL document CHEMBL1201862, “PubChem BioAssay data set” (2004)
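The compound was tested at five concentrations on cells cultured in 96-well plates, with a 48-hour exposure period. Abbreviation: GI50, concentration required for 50% inhibition of growth.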 Active and inactive are the calls of the source. No stated cut-off is given here; in the data, active = GI50 up to about 1.1 µM and inactive = higher.

Experiments:
Assay in all cases: DTP human tumour cell line panel, 48 h
MOLT-4 = system: MOLT-4
SF-295 = system: SF-295
UACC-257 = system: UACC-257
SW-620 = system: SW-620
T47D = system: T47D
PC-3 = system: PC-3
UACC-62 = system: UACC-62
HCC 2998 = system: HCC 2998
DU-145 = system: DU-145
U-251 = system: U-251
RPMI-8226 = system: RPMI-8226
IGROV-1 = system: IGROV-1
MCF7 = system: MCF7
MDA-MB-231 = system: MDA-MB-231
RXF 393 = system: RXF 393
MDA-N = system: MDA-N
SK-MEL-28 = system: SK-MEL-28
CAKI-1 = system: CAKI-1
LOX IMVI = system: LOX IMVI
SK-OV-3 = system: SK-OV-3

Measured: GI50

CCOC(=O)c1ccc(NC(=O)O/N=C(/Cl)C(C)C)cc1
inactive: MOLT-4 1.92 µM | SF-295 19.1 µM | UACC-257 16.9 µM | SW-620 2.09 µM | T47D 2.75 µM | PC-3 20.4 µM | UACC-62 18.9 µM | HCC 2998 16.6 µM | DU-145 28.1 µM | U-251 19.1 µM | RPMI-8226 4.49 µM | IGROV-1 19.4 µM | MCF7 1.98 µM | MDA-MB-231 19.5 µM | RXF 393 16.3 µM | MDA-N 15.8 µM | SK-MEL-28 16.2 µM | CAKI-1 4.63 µM | LOX IMVI 4.95 µM | SK-OV-3 18.9 µM

CCOC(=O)c1ccc(Nc2nc3ccccc3n3cccc23)cc1
inactive: MOLT-4 > 100 µM | SF-295 27.1 µM | UACC-257 > 100 µM | SW-620 9.38 µM | T47D 9.57 µM | PC-3 36.6 µM | UACC-62 40.8 µM | HCC 2998 35 µM | DU-145 86.1 µM | U-251 28.4 µM | RPMI-8226 > 100 µM | IGROV-1 46.6 µM | MCF7 32 µM | MDA-MB-231 36 µM | RXF 393 14.3 µM | MDA-N 3.15 µM | SK-MEL-28 88.1 µM | CAKI-1 > 100 µM | LOX IMVI 50.2 µM | SK-OV-3 27.4 µM

CCCCON1C[C@H](OC(C)=O)C(OC(C)=O)[C@H](OC(C)=O)C1 (stereo not given in full)
inactive: MOLT-4 > 100 µM | SF-295 > 100 µM | UACC-257 > 100 µM | SW-620 > 10 µM | T47D > 100 µM | PC-3 > 100 µM | UACC-62 > 100 µM | HCC 2998 > 100 µM | DU-145 > 100 µM | U-251 > 100 µM | RPMI-8226 > 100 µM | IGROV-1 > 100 µM | MCF7 > 100 µM | MDA-MB-231 > 100 µM | RXF 393 > 100 µM | MDA-N > 100 µM | SK-MEL-28 > 100 µM | CAKI-1 > 100 µM | LOX IMVI > 100 µM | SK-OV-3 > 100 µM

O=C1OC(c2ccc(O)c(-c3ccccc3)c2)(c2ccc(O)c(-c3ccccc3)c2)c2c(Cl)c(Cl)c(Cl)c(Cl)c21
inactive: MOLT-4 > 100 µM | SF-295 > 100 µM | UACC-257 > 100 µM | SW-620 > 100 µM | T47D > 100 µM | PC-3 > 100 µM | UACC-62 > 100 µM | HCC 2998 > 100 µM | DU-145 > 100 µM | U-251 > 100 µM | RPMI-8226 > 100 µM | IGROV-1 > 100 µM | MCF7 > 100 µM | MDA-MB-231 > 100 µM | RXF 393 > 100 µM | MDA-N > 100 µM | SK-MEL-28 > 100 µM | CAKI-1 > 100 µM | LOX IMVI > 100 µM | SK-OV-3 > 100 µM

O=[N+]([O-])c1cccc(Cl)c1Oc1ccc(S(=O)(=O)N/C(=N\O)Nc2ccc(Cl)cc2)cc1
inactive: MOLT-4 3.11 µM | SF-295 16.1 µM | UACC-257 11.1 µM | SW-620 15.1 µM | T47D 5.97 µM | PC-3 11.5 µM | UACC-62 12.7 µM | HCC 2998 10.8 µM | DU-145 15.5 µM | U-251 13.6 µM | RPMI-8226 6.01 µM | IGROV-1 15.1 µM | MCF7 13.3 µM | MDA-MB-231 17.7 µM | RXF 393 13.8 µM | MDA-N 12.7 µM | SK-MEL-28 15.1 µM | CAKI-1 9.46 µM | LOX IMVI 14.3 µM | SK-OV-3 17.1 µM

COc1c2c(cc3c1OCO3)[C@]13C=C[C@H](OC)C[C@H]1N(C2)CC3O (stereo not given in full)
inactive: MOLT-4 99.1 µM | SF-295 > 100 µM | UACC-257 > 100 µM | SW-620 > 100 µM | T47D > 100 µM | PC-3 > 100 µM | UACC-62 > 100 µM | HCC 2998 > 100 µM | DU-145 > 100 µM | U-251 > 100 µM | RPMI-8226 > 100 µM | IGROV-1 > 100 µM | MCF7 > 100 µM | MDA-MB-231 > 100 µM | RXF 393 > 100 µM | MDA-N > 100 µM | SK-MEL-28 > 100 µM | CAKI-1 > 100 µM | LOX IMVI > 100 µM | SK-OV-3 > 100 µM

Nc1nc(NCC2(CO)CC(CCc3ccccc3)C2)cc(=O)[nH]1 (stereo not given)
inactive: MOLT-4 55.2 µM | SF-295 > 100 µM | UACC-257 > 100 µM | SW-620 > 100 µM | T47D 27.8 µM | PC-3 > 100 µM | UACC-62 > 100 µM | HCC 2998 > 100 µM | DU-145 > 100 µM | U-251 > 100 µM | RPMI-8226 46.7 µM | IGROV-1 > 100 µM | MCF7 > 100 µM | MDA-MB-231 > 100 µM | RXF 393 > 100 µM | MDA-N > 100 µM | SK-MEL-28 > 100 µM | CAKI-1 > 100 µM | LOX IMVI > 100 µM | SK-OV-3 22.2 µM
